Experimental findings from ChEMBL document CHEMBL3124777, “Synthesis and biological evaluation of thiazoline derivatives as new antimicrobial and anticancer agents” (Eur J Med Chem, 2014) are described below.

≈ marks a conversion by molar mass, not a printed value.

For the first assay, the system named is Candida albicans. Description: Antimicrobial activity against Candida albicans ATCC 22019 after 18 to 24 hrs by microbroth dilution method. It is filed as functional.
Settings: not given
With `O=C(CSc1ncccn1)N/N=c1/scc(-c2ccc(Cl)cc2)n1-c1ccccc1`, 250 µg/mL (≈ 551 µM) was the least that counted as inhibitory (MIC).

`Cc1ccc(-c2cs/c(=N/NC(=O)CSc3nncn3C)n2-c2ccccc2)cc1`: inhibition of growth (MIC) required 125 µg/mL (≈ 286 µM).

The next assay concerns C6. Description: Cytotoxicity against rat C6 cells assessed as cell viability at 100 ug/ml after 24 hrs by MTT assay relative to control. It is filed as functional. The note with it: C6, 24 h, read-out: Activity. For orientation: Tetrazolium dyes change colour on reduction, which living cells bring about.
With `O=C(CSc1ncccn1)N/N=c1/scc(-c2ccc(Cl)cc2)n1-c1ccccc1`, the viability at 100 µg/mL was 45.5%.

Consider `Cc1ccc(-c2cs/c(=N/NC(=O)CSc3nncn3C)n2-c2ccccc2)cc1`, for which the viability at 100 µg/mL was 39.6%.

For another assay, the system named is Micrococcus luteus. Description: Antimicrobial activity against Micrococcus luteus NRLL B-4375 after 18 to 24 hrs by microbroth dilution method. It is filed as functional.
Settings: not given
In general terms: In broth dilution the organism is exposed to a series of concentrations in liquid medium.
Turning to `O=C(CSc1ncccn1)N/N=c1/scc(-c2ccc(Cl)cc2)n1-c1ccccc1`, the MIC – broadly, the smallest concentration in the dilution series that meets the test's criterion for growth inhibition – came out at 250 µg/mL (≈ 551 µM).

Consider `Cc1ccc(-c2cs/c(=N/NC(=O)CSc3nncn3C)n2-c2ccccc2)cc1`, for which the MIC is 125 µg/mL (≈ 286 µM).

For a further assay, the system named is Fusarium verticillioides. Description: Antimicrobial activity against Fusarium moniliforme NRRL 1866 after 48 to 72 hrs by microbroth dilution method. It is filed as functional.
Settings: not given
`O=C(CSc1ncccn1)N/N=c1/scc(-c2ccc(Cl)cc2)n1-c1ccccc1` had a minimal inhibitory concentration (MIC) of 250 µg/mL (≈ 551 µM).

As to `Cc1ccc(-c2cs/c(=N/NC(=O)CSc3nncn3C)n2-c2ccccc2)cc1`, the MIC was determined as 250 µg/mL (≈ 573 µM).

The next assay has as its system Aspergillus ochraceus. Description: Antimicrobial activity against Aspergillus ochraceus NRRL 3174 after 48 to 72 hrs by microbroth dilution method. It is filed as functional.
Settings: not given
In turn, `O=C(CSc1ncccn1)N/N=c1/scc(-c2ccc(Cl)cc2)n1-c1ccccc1` yielded an MIC of 250 µg/mL (≈ 551 µM).

`Cc1ccc(-c2cs/c(=N/NC(=O)CSc3nncn3C)n2-c2ccccc2)cc1`: inhibition of growth (MIC) required 250 µg/mL (≈ 573 µM).

Another assay relates to NIH3T3. Description: Cytotoxicity against mouse NIH/3T3 cells after 24 hrs by MTT assay. Particulars: NIH3T3, 24 h. It is filed as cell-based.
With `O=C(CSc1ncccn1)N/N=c1/scc(-c2ccc(Cl)cc2)n1-c1ccccc1`, the IC50 (as a rule, the concentration that inhibits the measured activity by half) was found to be 397 µg/mL (≈ 874 µM).

Compound `Cc1ccc(-c2cs/c(=N/NC(=O)CSc3nncn3C)n2-c2ccccc2)cc1` gave a concentration for half-maximal inhibition (IC50) of 130 µg/mL (≈ 298 µM).

The next assay has as its system C6. Description: Cytotoxicity against rat C6 cells assessed as cell viability at 200 ug/ml after 24 hrs by MTT assay relative to control. It is filed as functional. The note with it: C6, 24 h, read-out: Activity.
For the compound `O=C(CSc1ncccn1)N/N=c1/scc(-c2ccc(Cl)cc2)n1-c1ccccc1`, the viability at 200 µg/mL is 39.7%.

Take `Cc1ccc(-c2cs/c(=N/NC(=O)CSc3nncn3C)n2-c2ccccc2)cc1`: the viability at 200 µg/mL amounted to 27.8%.

The subject of a further assay is Trichoderma harzianum. Description: Antimicrobial activity against Trichoderma harzianum NRRL 20565 after 48 to 72 hrs by microbroth dilution method. It is filed as functional.
Settings: not given
For `O=C(CSc1ncccn1)N/N=c1/scc(-c2ccc(Cl)cc2)n1-c1ccccc1`, inhibition of growth (MIC) required 250 µg/mL (≈ 551 µM).

In turn, `Cc1ccc(-c2cs/c(=N/NC(=O)CSc3nncn3C)n2-c2ccccc2)cc1` registered an MIC of 125 µg/mL (≈ 286 µM).

The next assay deals with Listeria monocytogenes. Description: Antimicrobial activity against Listeria monocytogenes ATCC 7644 after 18 to 24 hrs by microbroth dilution method. It is filed as functional.
Settings: not given
`O=C(CSc1ncccn1)N/N=c1/scc(-c2ccc(Cl)cc2)n1-c1ccccc1` returned an MIC of 250 µg/mL (≈ 551 µM).

Turning to `Cc1ccc(-c2cs/c(=N/NC(=O)CSc3nncn3C)n2-c2ccccc2)cc1`, the MIC was found to be 250 µg/mL (≈ 573 µM).

For a further assay, the system named is C6. Description: Cytotoxicity against rat C6 cells after 24 hrs by MTT assay. It is filed as functional, cell-based. The note with it: C6, 24 h.
`O=C(CSc1ncccn1)N/N=c1/scc(-c2ccc(Cl)cc2)n1-c1ccccc1` returned an IC50 of 83.3 µg/mL (≈ 183 µM).

In turn, `Cc1ccc(-c2cs/c(=N/NC(=O)CSc3nncn3C)n2-c2ccccc2)cc1` gave an IC50 of 56 µg/mL (≈ 128 µM).

In a further assay the test system is Penicillium chrysogenum. Description: Antimicrobial activity against Penicillium chrysogenum NRRL 1951 after 48 to 72 hrs by microbroth dilution method. It is filed as functional.
Settings: not given
Consider `O=C(CSc1ncccn1)N/N=c1/scc(-c2ccc(Cl)cc2)n1-c1ccccc1`, for which the MIC is 250 µg/mL (≈ 551 µM).

In turn, `Cc1ccc(-c2cs/c(=N/NC(=O)CSc3nncn3C)n2-c2ccccc2)cc1` registered a minimum inhibitory concentration (MIC) of 250 µg/mL (≈ 573 µM).

The next assay has as its system Aspergillus parasiticus. Description: Antimicrobial activity against Aspergillus parasiticus NRRL 465 after 48 to 72 hrs by microbroth dilution method. It is filed as functional.
Settings: not given
The compound `O=C(CSc1ncccn1)N/N=c1/scc(-c2ccc(Cl)cc2)n1-c1ccccc1` returned an MIC of 250 µg/mL (≈ 551 µM).

For the compound `Cc1ccc(-c2cs/c(=N/NC(=O)CSc3nncn3C)n2-c2ccccc2)cc1`, the minimal inhibitory concentration (MIC) is 250 µg/mL (≈ 573 µM).

The next assay relates to Bacillus subtilis. Description: Antimicrobial activity against Bacillus subtilis NRS-744 after 18 to 24 hrs by microbroth dilution method.
Settings: not given
It is filed as functional.
`O=C(CSc1ncccn1)N/N=c1/scc(-c2ccc(Cl)cc2)n1-c1ccccc1` came in with a minimal inhibitory concentration (MIC) of 500 µg/mL (≈ 1100 µM).

The compound `Cc1ccc(-c2cs/c(=N/NC(=O)CSc3nncn3C)n2-c2ccccc2)cc1` gave an MIC of 250 µg/mL (≈ 573 µM).

The next assay deals with C6. Description: Cytotoxicity against rat C6 cells assessed as cell viability at 6 ug/ml after 24 hrs by MTT assay relative to control. It is filed as functional. The note with it: C6, 24 h, read-out: Activity.
On to `O=C(CSc1ncccn1)N/N=c1/scc(-c2ccc(Cl)cc2)n1-c1ccccc1`, for which the viability at 6 µg/mL came to 95.9%.

Regarding `Cc1ccc(-c2cs/c(=N/NC(=O)CSc3nncn3C)n2-c2ccccc2)cc1`, the viability at 6 µg/mL amounted to 74.6%.

Another assay relates to C6. Description: Cytotoxicity against rat C6 cells assessed as cell viability at 12 ug/ml after 24 hrs by MTT assay relative to control. Particulars: C6, 24 h, read-out: Activity. It is filed as functional.
Regarding `O=C(CSc1ncccn1)N/N=c1/scc(-c2ccc(Cl)cc2)n1-c1ccccc1`, the viability at 12 µg/mL was found to be 91.6%.

`Cc1ccc(-c2cs/c(=N/NC(=O)CSc3nncn3C)n2-c2ccccc2)cc1`: the viability at 12 µg/mL turned out to be 72%.

The next assay relates to Staphylococcus aureus. Description: Antimicrobial activity against Staphylococcus aureus NRRL B-767 after 18 to 24 hrs by microbroth dilution method. It is filed as functional.
Settings: not given
The compound `O=C(CSc1ncccn1)N/N=c1/scc(-c2ccc(Cl)cc2)n1-c1ccccc1` had an MIC of 500 µg/mL (≈ 1100 µM).

`Cc1ccc(-c2cs/c(=N/NC(=O)CSc3nncn3C)n2-c2ccccc2)cc1` returned an MIC of 250 µg/mL (≈ 573 µM).

A further assay relates to C6. Description: Cytotoxicity against rat C6 cells assessed as cell viability at 25 ug/ml after 24 hrs by MTT assay relative to control. It is filed as functional. Particulars: C6, 24 h, read-out: Activity.
Turning to `O=C(CSc1ncccn1)N/N=c1/scc(-c2ccc(Cl)cc2)n1-c1ccccc1`, the viability at 25 µg/mL was determined as 91.1%.

Take `Cc1ccc(-c2cs/c(=N/NC(=O)CSc3nncn3C)n2-c2ccccc2)cc1`: the viability at 25 µg/mL came to 70.7%.

Another assay relates to Fusarium solani. Description: Antimicrobial activity against Fusarium solani NRRL 13414 after 48 to 72 hrs by microbroth dilution method.
Settings: not given
It is filed as functional.
`O=C(CSc1ncccn1)N/N=c1/scc(-c2ccc(Cl)cc2)n1-c1ccccc1` returned an MIC of 250 µg/mL (≈ 551 µM).

Compound `Cc1ccc(-c2cs/c(=N/NC(=O)CSc3nncn3C)n2-c2ccccc2)cc1` showed a minimum inhibitory concentration (MIC) of 250 µg/mL (≈ 573 µM).

Another assay concerns Escherichia coli. Description: Antimicrobial activity against Escherichia coli ATCC 25922 after 18 to 24 hrs by microbroth dilution method. It is filed as functional.
Settings: not given
With `O=C(CSc1ncccn1)N/N=c1/scc(-c2ccc(Cl)cc2)n1-c1ccccc1`, it took 250 µg/mL (≈ 551 µM) to inhibit growth (MIC).

With `Cc1ccc(-c2cs/c(=N/NC(=O)CSc3nncn3C)n2-c2ccccc2)cc1`, the MIC came out at 125 µg/mL (≈ 286 µM).

The test system of a further assay is Fusarium culmorum. Description: Antimicrobial activity against wild type Fusarium culmorum after 48 to 72 hrs by microbroth dilution method. It is filed as functional.
Settings: not given
In turn, `O=C(CSc1ncccn1)N/N=c1/scc(-c2ccc(Cl)cc2)n1-c1ccccc1` had a minimal inhibitory concentration (MIC) of 250 µg/mL (≈ 551 µM).

With `Cc1ccc(-c2cs/c(=N/NC(=O)CSc3nncn3C)n2-c2ccccc2)cc1`, the MIC turned out to be 250 µg/mL (≈ 573 µM).

The subject of the next assay is C6. Description: Cytotoxicity against rat C6 cells assessed as cell viability at 50 ug/ml after 24 hrs by MTT assay relative to control. It is filed as functional. Particulars: C6, 24 h, read-out: Activity.
For the compound `O=C(CSc1ncccn1)N/N=c1/scc(-c2ccc(Cl)cc2)n1-c1ccccc1`, the viability at 50 µg/mL stood at 61.8%.

For the compound `Cc1ccc(-c2cs/c(=N/NC(=O)CSc3nncn3C)n2-c2ccccc2)cc1`, the viability at 50 µg/mL turned out to be 53.8%.

A further assay deals with Pseudomonas aeruginosa. Description: Antimicrobial activity against Pseudomonas aeruginosa […] after 18 to 24 hrs by microbroth dilution method. It is filed as functional.
Settings: not given
Take `O=C(CSc1ncccn1)N/N=c1/scc(-c2ccc(Cl)cc2)n1-c1ccccc1`: it took 250 µg/mL (≈ 551 µM) to inhibit growth (MIC).

`Cc1ccc(-c2cs/c(=N/NC(=O)CSc3nncn3C)n2-c2ccccc2)cc1` registered an MIC of 250 µg/mL (≈ 573 µM).
